Data set [1] in a line: Substrate depletion assay in cryopreserved human hepatocytes (CPHH). The settings on record: pooled cryopreserved human hepatocytes; for half-life at 1 µM: pH 7.3, test conc. 1.0E-06 M (Table S4); for half-life / hepatocyte CLint: pH 7.3, test conc. 1×10^−6 M, n = 3. It counts as in vitro ADME. The protocol:
Microsomal stability was determined for the TbB ligands by monitoring the presence of compound after incubation in CPHH and HLM, as shown in Figure 7 and Figure S18 of the Supporting Information. […] Such an observation with NCEs is common because, with HLM, NADPH is used as a cofactor, thereby focusing mainly on phase 1 oxidation pathways such as P450 metabolism. Although additional enzymes, such as UDP-glucuronosyltransferase (UGTs), are present in HLM, the lack of the associated necessary cofactors prevents them from being functionally active (e.g., uridine diphosphate glucuronic acid (UDPGA)). In contrast, all the three TbB ligands metabolized in cryopreserved hepatocytes (Figure 7). […] The reason could be that hepatocytes have all the necessary enzymes and cofactors for the metabolic processes. Since they contain the complete set of oxidative/reductive, hydrolytic, and conjugative drug metabolizing enzymes found in the liver, they are regarded as the gold standard. Therefore, they are preferred in vitro options for expressing metabolic stability as substrate depletion, total metabolic clearance, and T 1/2 [29].
From the plot shown in Figure S18 of the Supporting Information, it can be inferred that the TbB ligands undergo slow biotransformation in HLM. Such high metabolic stability may result in drug interactions leading to toxicity of the parent compound. On the contrary, TbB ligands are undergoing rapid biotransformation in CPHH (Figure 7), and this may lead to generation of metabolites that are either toxic, active, or nonactive. Metabolic stability is typically expressed by in vitro half-life T 1/2 and intrinsic clearance (CLint) terms. Intrinsic clearance (CLint) is measured using the substrate depletion method. It describes the maximum liver (microsomal proteins or hepatocytes) activity towards a compound not affected by other physiological factors such as hepatic blood flow and drug binding within the blood matrix. T 1/2 is used to express the time for the 50% disappearance of the parent compound. A possible explanation for the difference in metabolic stability might be that the TbB ligands bind to microsomes during incubation. This can result in decreased free TbB ligand levels available to interact with metabolizing enzymes, reducing apparent intrinsic clearance values.
The test compound stability in a pooled human cryopreserved hepatocytes was tested after thawing, washing, and resuspending the cryopreserved hepatocytes in Krebs–Heinslet buffer (pH 7.3). The onset of reaction happens by the addition of the test compound into cell suspension and incubated for 0, […], 1, 1.5, and 2 h, respectively, at 37 °C/5% CO 2 . The reaction is terminated in the incubation mixture by the addition of acetonitrile. After thorough sample mixing, the sample was completely transferred to another 96-well plate and centrifuged, followed by HPLC-MS/MS analysis of supernatant. Four compounds as reference, namely, propranolol, a relatively stable and readily metabolizing flurazepam, naloxone, and HFC (7-hydroxy-4-trifluoromethyl-coumarin) in human hepatocytes were included in each assay. Data analysis was performed as mentioned above and the intrinsic clearance (CLint) is calculated from the half-life using the following equation. CLint(μL/min/millioncells)=0.693/T1/2×CellDensity.

The target of data set [2] is T1, CYP2B6 (Homo sapiens, UniProt P20813).
T1 construct: Using HLM as the enzyme source; from tissue; host or cells: human liver microsomes
T1 sequence (P20813 1-491): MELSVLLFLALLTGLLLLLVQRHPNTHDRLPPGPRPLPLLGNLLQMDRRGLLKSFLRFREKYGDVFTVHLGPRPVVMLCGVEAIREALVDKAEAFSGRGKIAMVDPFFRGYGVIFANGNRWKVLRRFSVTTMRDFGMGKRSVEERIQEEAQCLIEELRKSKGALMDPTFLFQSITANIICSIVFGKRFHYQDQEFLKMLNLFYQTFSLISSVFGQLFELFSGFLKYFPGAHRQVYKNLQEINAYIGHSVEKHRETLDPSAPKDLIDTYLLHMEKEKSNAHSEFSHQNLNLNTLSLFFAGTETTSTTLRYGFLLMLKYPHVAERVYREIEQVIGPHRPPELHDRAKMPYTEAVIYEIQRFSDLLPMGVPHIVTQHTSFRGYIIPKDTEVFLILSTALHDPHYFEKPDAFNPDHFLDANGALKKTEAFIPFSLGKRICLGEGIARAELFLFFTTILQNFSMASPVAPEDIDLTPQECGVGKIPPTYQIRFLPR
In words: Single concentration Kobs assay (time-dependent inhibition) in HLM. It counts as biochemical. The settings on record: human liver microsomes, significant if >50%, read-out: 2B6 R_Inh% (reversible inhibition).

Half-life, hepatocyte CLint and inhibition data for three compounds are collected here from PMC9921896 (Molecules, 2023).

By half-life is commonly meant the time needed for the level to fall by half in the phase considered. Low values mean rapid decline, high ones slow decline. As usually defined, the hepatocyte CLint is a measure of how fast metabolising enzymes remove a compound, apart from limits set by blood flow. The low end stands for slow turnover, the high end for rapid turnover. In general, inhibition refers to the change of the read-out against control, counted positive when it falls.

As for `COc1cc(-c2nnn(-c3cc(OC)c(O)c(OC)c3)n2)cc(OC)c1O` [223-2], in data set [1], the half-life at 1 µM is 33 min, the half-life turned out to be 33 min and the hepatocyte CLint stood at 29.8 µL/min/1e6 cells. For the same compound, in data set [2], the inhibition at 30 min is less than 50%.

Consider `Cc1cc(-c2nnn(-c3cc(C)c(O)c(C)c3)n2)cc(C)c1O` [223-3], for which, in data set [1], the half-life at 1 µM was found to be 54 min, the half-life was 54 min and the hepatocyte CLint turned out to be 18.4 µL/min/1e6 cells. In data set [2], the inhibition at 30 min was less than 50%.

Regarding `Oc1ccc(-c2nnn(-c3ccc(O)cc3)n2)cc1` [223-10], in data set [1], the half-life at 1 µM worked out at 36 min, the half-life stood at 36 min and the hepatocyte CLint was determined as 27.8 µL/min/1e6 cells. In data set [2], the inhibition at 30 min was less than 50%.
